Data as given in article PMC3672070, “Novel birch pollen specific immunotherapy formulation based on contiguous overlapping peptides” (Clinical and Translational Allergy, 2013).
Read-outs that look alike come from different tables or passages of the source. Ends that are not written are not given here.

Experiments:
[1] = test system: rBet v 1 specific IgE in sera from birch pollen allergic patients; experiment: Competition ELISA for rBet v 1 specific human IgE; conditions: read-out: EC50, inhibition of serum IgE binding to rBet v 1; sera from 6 birch pollen allergic patients (1:5 to 1:10) incubated 1 h with tenfold dilutions of competitor starting at 10^-5 M; rBet v 1 coated plates; '>' = no competitive activity up to this concentration
Method: Successively and with washings between steps, plates were incubated 1 h at RT with biotinylated mouse anti-huIgE (Pharmingen, 5 μg/ml, 1 h at RT), Streptavidin-HRP or -alkaline phosphatase (BD, 1:1000 or 1:8000, respectively, 30 min at RT) and TMB (BD OptEIA, ) or 4-NPP. OD were read at 450 nm, 630 nm and 405 nm, respectively. Inhibition of IgE binding to Betv 1 was calculated as: (OD with competitor minus ODmin)/(OD without competitor minus ODmin) × 100, where ODmin was determined in wells without serum.

[2] = test system: volunteers allergic to birch pollen; conditions: human, in vivo
Method: (§1) The AN002 phase I clinical trial was a single center, open and controlled study conducted at the Centre Hospitalier Universitaire Vaudois (CHUV) in Lausanne. Volunteers (18–45 years) with at least one season history of birch pollen rhinoconjunctivitis or asthma were recruited outside of the birch pollen season. […] The primary objective of the study was to determine the reactogenicity of selected COPs by skin prick tests.
(§2) Individual T1 to T5 COPs, AllerT and T4-T5 mix were evaluated in vivo by skin prick tests following EAACI guidelines [31].

[3] = test system: volunteers allergic to birch pollen; experiment: Skin prick testing of birch pollen sensitive volunteers (AN002 phase I clinical trial); conditions: 20 volunteers; for skin prick test positive reactions: even at a 10 μM concentration
Method: as §1, §2

RBL-2H3 cells = experiment: Degranulation assay (beta-hexosaminidase release) on rat basophil line RBL-2H3 loaded with sera from rBet v 1-sensitized mice; format: cell-based
Method: Degranulation assay was performed as previously described. RBL-2H3 cells were plated in 96-well tissue culture plates (4×10^4 cells/well) overnight. Passive sensitization of RBL-2H3 cells was carried out with sera from rBet v 1-sensitized mice at a final dilution of 1:30 for 2 h. Unbound antibodies were removed by washing the cell layer twice in Hanks’ balanced salt solution (Sigma-Aldrich, St-Louis, MO, USA). […] The reaction was stopped by addition of 100 μl glycine buffer (0.2M glycine, 0.2M NaCl, pH 10.7) and optical densities (OD) measured at 405 nm.

[4] = test system: RBL703/21 cells (RBL transfected with human FcϵRI); experiment: Degranulation assay (beta-hexosaminidase release) on humanised basophil cell line RBL703/21; format: cell-based, rat; conditions: RBL703/21 incubated overnight with sera from ten patients (ImmunoCAP classes 4 to 6); 1 h 37°C
Method: The assay was adapted from Ladics et al. and Blanc et al.. RBL cells transfected with human FcϵRI (RBL703/21, kind gift of Dr L. Vogel, Paul-Ehrlich Institute, Germany) were plated at 10^5 cells/well in medium (MEM containing glutamine and penicillin/streptomycin) and incubated overnight with sera from subjects with class 4, 5 and 6 IgE levels to birch pollen extract as determined by ImmunoCAP (Phadia, Uppsala, Sweden). Human serum was diluted 1/2 with 4M glucose and incubated for 45 min at 56°C, centrifuged and diluted 1/5 with MEM medium before addition to RBL703/21 cells. […] Supernatants (30 μl) were incubated in duplicates with 50 μl of substrate solution (1.3 mg/ml p-nitrophenyl-b-D-2-acetamido-2-deoxyglucopyranozide from Sigma in 0.1 M citrate pH 4.5) for 1 hour at 37°C. Reaction was stopped by the addition of 100 μl of 0.2 M glycin (pH 10.7). OD was measured at 405 nm (reference filter at 620 nm). β-hexosaminidase release was calculated using the following formula: (OD sample-ODbuffer) / (ODanti-IgE-ODbuffer) × 100.

[5] = dilution 1:1 of the concentration given (COPs and mixes 10 μM, rBet v 1 1 μM, birch 100’000 SQ), EAACI guidelines
[6] = dilution 1:1 of the concentration given in the row (10 μM)
[7] = dilution 1:100 of the concentration given

| EC50 [1] [µM] | Positive skin reactions (≥3 mm wheal and flare present), number of volunteers [2] | Positive skin reactions (≥3 mm wheal and flare present), number of volunteers [3, 5] | 0 mm <Skin reaction < 3 mm (sub-threshold), number of volunteers [3, 6] | 0 mm <Skin reaction < 3 mm (sub-threshold), number of volunteers ([3]; dilution 1:10) | Positive skin reactions (≥3 mm wheal and flare present), number of volunteers ([3]; dilution 1:10) | 0 mm <Skin reaction < 3 mm (sub-threshold), number of volunteers [3, 7] | Positive skin reactions (≥3 mm wheal and flare present), number of volunteers [3, 7] | Molecule | skin prick test positive reactions [3] | optimal rBet v 1 concentration for hexosaminidase release (RBL-2H3 cells; RBL-2H3 loaded with sera from rBet v 1-sensitized mice, serial concentrations) [nM] | hexosaminidase release (RBL-2H3 cells; RBL-2H3 primed with sera from Bet v 1-sensitized mice (1:30), stimulation 1 h 37°C, COPs and AllerT at 5.7 nM (n=10) and 57 nM (n=3), OD 405 nm) | dose at which maximal degranulation response was reached [4] | positive skin prick reactions, share of patients ([3]; allergen concentration lowered by 10 fold (birch 10’000 SQ, rBet v 1 0.1 μM)) [%] |
| --- | --- | --- | --- | --- | --- | --- | --- | --- | --- | --- | --- | --- | --- |
| > 10 | 0 | – | – | – | – | – | – | VATPDGGSILKISNKYHTKGDHEVKAEQVKASKEMGETLLRAVESYLLAHSDAYN [T3] | – | – | – | – | – |
| > 10 | – | 0 | 0 | 0 | 0 | 1 | 0 | GVFNYETETTSVIPAARLFKAFILDGDNLFPKVAPQAISSVENIEGNGGPGTIKKISFPEGFPFKYVKDRVDEVDHTNFKYNYS [T4] | – | – | – | – | – |
| > 10 | – | 0 | 0 | 0 | 0 | 0 | 0 | NGGPGTIKKISFPEGFPFKYVKDRVDEVDHTNFKYNYSVIEGGPIGDTLEKISNEIKIVATPDGGSILKIS [T2] | unable to elicit skin prick test positive reactions | – | – | – | – |
| > 10 | – | 0 | – | 0 | 0 | 0 | 0 | GVFNYETETTSVIPAARLFKAFILDGDNLFPKVAPQAISSVENIEGNGG [T1] | unable to elicit skin prick test positive reactions | – | – | – | – |

| Molecule | EC50 [1] [µM] | Positive skin reactions (≥3 mm wheal and flare present), number of volunteers [2] | Positive skin reactions (≥3 mm wheal and flare present), number of volunteers [3, 5] | 0 mm <Skin reaction < 3 mm (sub-threshold), number of volunteers [3, 6] | 0 mm <Skin reaction < 3 mm (sub-threshold), number of volunteers ([3]; dilution 1:10) | Positive skin reactions (≥3 mm wheal and flare present), number of volunteers ([3]; dilution 1:10) | 0 mm <Skin reaction < 3 mm (sub-threshold), number of volunteers [3, 7] | Positive skin reactions (≥3 mm wheal and flare present), number of volunteers [3, 7] | skin prick test positive reactions [3] | optimal rBet v 1 concentration for hexosaminidase release (RBL-2H3 cells; RBL-2H3 loaded with sera from rBet v 1-sensitized mice, serial concentrations) [nM] | hexosaminidase release (RBL-2H3 cells; RBL-2H3 primed with sera from Bet v 1-sensitized mice (1:30), stimulation 1 h 37°C, COPs and AllerT at 5.7 nM (n=10) and 57 nM (n=3), OD 405 nm) | dose at which maximal degranulation response was reached [4] | positive skin prick reactions, share of patients ([3]; allergen concentration lowered by 10 fold (birch 10’000 SQ, rBet v 1 0.1 μM)) [%] |
| --- | --- | --- | --- | --- | --- | --- | --- | --- | --- | --- | --- | --- | --- |
| rBet v 1: recombinant major birch pollen allergen Bet v 1 (BIOMAY, Vienna, Austria) (protein, UniProt P15494 2-160, looked up) Major pollen allergen Bet v …: GVFNYETETTSVIPAARLFKAFILDGDNLFPKVAPQAISSVENIEGNGGPGTIKKISFPEGFPFKYVKDRVDEVDHTNFKYNYSVIEGGPIGDTLEKISNEIKIVATPDGGSILKISNKYHTKGDHEVKAEQVKASKEMGETLLRAVESYLLAHSDAYN | – | – | – | – | – | 16 | – | 2 | – | 0.57 | accumulated significantly | 10^-9 M | 80 |
| T5: Bet v 1-derived synthetic contiguous overlapping peptide, aa 65-160 (peptide, UniProt P15494 65-160, looked up, fragment) FKYVKDRVDEVDHTNFKYNYSVIEGGPIGDTLEKISNEIKIVATPDGGSILKISNKYHTKGDHEVKAEQVKASKEMGETLLRAVESYLLAHSDAYN | > 10 | – | 0 | – | 0 | 0 | 0 | 0 | – | – | – | – | – |
